The text below walks through data of patent US6696478B2, “Cancer treatment with Gö6976 and its related compounds” (priority 1999, dated 2004).

The test system of data set [1] is A549 human lung cancer cells. Kind of data set: Cell viability assay (trypan blue), lung cancer cells, second set. The format is cell-based. To be noted: 14 μm compound; approximately 5×10^5 cells seeded; seven days after treatment. As for the experimental part: A549 human lung cancer cells,
(§1) These cells were maintained in Dulbecco's modified Eagle medium (DMEM) supplemented with 10 percent bovine calf serum.
(§2) Cells were seeded for 24 hours. Then they were either treated with Gö6976, C-o 002, or C-o 003, or left untreated. The cells were then collected periodically and evaluated using trypan blue dye exclusion to asses viability using the method described by CY Chen, et al, in J.Biol. Chem. 273:16700-16709.
(§3) Two sets of approximately 5×10^5 human MDA-MB-468 breast cancer cells, DU145 human prostate cancer cells, A549 lung cancer cells, AGS gastric cancer cells, and T84 colorectal cancer cells were seeded and treated with 14 μm C-o 002 and C-o 003 24 hours later. Seven days after treatment, viable cells were counted.

For data set [2], the system named is HepG2 human liver cancer cells. Kind of data set: Cell viability assay (trypan blue), liver cancer cells, second set. The settings on record: seven days after treatment. The format is cell-based. How it is done: HepG2 human liver cancer cells,
as §1, §2
(§4) Two sets of approximately 5×10^5 DU145 prostate cancer cells, HepG2 liver cancer cells, AGS gastric cancer cells, and T84 colorectal cancers were seeded and 24 hours later one of the sets were treated with 2 μm Gö6976. Seven days after treatment, viable cells were counted.
as §3

Data set [3] concerns MDA-MB-468 human breast cancer cells. The data set can be described thus: Cell viability assay (trypan blue), breast cancer cells, second set. Type of data set: cell-based. The settings on record: 14 μm compound; approximately 5×10^5 cells seeded; seven days after treatment. How it is done: MDA-MB-468 human breast cancer cells
as §1, §2, §3

The test system of data set [4] is AGS human gastric cancer cells. Kind of data set: Cell viability assay (trypan blue), gastric cancer cells, second set. The format is cell-based. The settings on record: approximately 5×10^5 cells seeded, seven days after treatment. How it is done:
AGS human gastric cancer cells,
as §1, §2, §4, §3

For data set [5], the system named is DU145 human prostate cancer cells. Kind of data set: Cell viability assay (trypan blue), prostate cancer cells, second set. Type of data set: cell-based. The settings on record: approximately 5×10^5 cells seeded, seven days after treatment. As for the experimental part:
DU145 human prostate cancer cells,
as §1, §2, §4, §3

The test system of data set [6] is T84 human colorectal cancer cells. The data set can be described thus: Cell viability assay (trypan blue), colorectal cancer cells, second set. The format is cell-based. To be noted: approximately 5×10^5 cells seeded, seven days after treatment. As for the experimental part: T84 human colorectal cancer cells,
as §1, §2, §4, §3

Data set [7] concerns 3Y1 cells overexpressing EGF receptors. Kind of data set: EGF-induced cell transformation (morphology). Type of data set: cell-based, rat.
Description: (§5) 3Y1 rat fibroblast cells overexpressing the epidermal growth factor receptor (EGFR).
as §1

Data set [8] has as its system A431 human epidermoid carcinoma cells. Kind of data set: Cell viability assay (trypan blue), epidermoid carcinoma cells. The format is cell-based. The settings on record: 2 micromoles Gö6976; about 5×10^5 cells at start; at four days; untreated grew by a factor of about 24 (FIG. 7). How it is done:
A431 human epidermoid carcinoma cells,
as §1
(§6) Cells were seeded for 24 hours. Then they were either treated with Gö6976 or left untreated. The cells were then collected periodically and evaluated using trypan blue dye exclusion to asses viability using the method described by CY Chen, et al, in J.Biol. Chem. 273:16700-16709.
One of two samples of about 5×10^5 cells was treated with 2 micromoles of Gö6976 and the viable cells were counted each 24 hours for four days.

The test system of data set [9] is PKC α. The settings on record: cited from earlier work.
Data set [10] has as its system 3Y1 cells overexpressing EGF receptors. The data set can be described thus: Anchorage-independent cell growth in soft agar (EGF-induced colony formation). The format is cell-based, rat. To be noted: 100 ng/ml EGF and 250 nanamoles Gö6976; three weeks in soft agar (FIG. 8).
Description: as §5
For growth of these cells in soft agar, 1×10^3 cells were suspended in top agar (consisting of 20 percent calf serum, 0.38 percent agar and the remainder DMEM) and overlaid onto hardened bottom agar (DMEM, 20 percent calf serum and 0.7 percent agar) as reported by Sementchenko et al, in Onocgen 17:2883-2888.
The effect of Gö6976 on blocking EGF-induced cell transformation was further confirmed by checking anchorage-independent cell growth. […] One sample was left untreated, one was treated with 100 ng/ml of EGF, one sample was treated with 100 ng/ml of EGF and 250 nanamoles of Gö6976 and one sample was treated with 250 nanaomoles of Gö6976. In each case the percentage of cell forming colonies were determined three weeks after suspending the cells in soft agar.

The subject of data set [11] is human breast cancer cells (MDA-MB-468 and MDA-MB-453). Kind of data set: Cell viability assay (trypan blue dye exclusion), breast cancer cells, first set. The format is cell-based. The settings on record: for viable cell count: about 5×10^5 cells at start, counted at day 4 (FIG. 2). How it is done:
MDA-MB-468 human breast cancer cells,
MDA-MB-453 human breast cancer cells,
as §1, §6
In both FIG. 2 and FIG. 3 error bars indicated the estimated standard error based on three independent experiments.

The subject of data set [12] is Small cell lung cancer cells (NCI-H048). Kind of data set: Cell viability assay (trypan blue), small cell lung cancer cells. Type of data set: cell-based. The settings on record: treated with Gö6976 (concentration not given); about 5×10^5 cells at start; day 4 (FIG. 5). As for the experimental part:
Small cell lung cancer cells (NCI-H048),
(§7) Small cell lung cancer cells were grown in RPMI 1640 medium with 2 mM L-glutamine adjusted to contain 1.5 g/L sodium bicarbonate, 4.5 g/L glucose, 10 mM HEPES, 1.0 mM sodium pyruvate, and 5% fetal bovine serum. Non-small cell lung cancer cells were grown in RPMI 1640 medium supplemented with 5% fetal bovine serum, 5 ug/ml insulin, 10 ug/ml transferrin, 30 nM sodium selenite, 10 nM hydrocortisone, 10 nM beta-estradiol, 10 mM HEPES, and 2 mM L- glutamine.
as §6
(§8) Two samples each of about 5×10^5 cells small lung cancer cells and non-small lung cancer cells were prepared and one sample of each type was treated with Gö6976 and the viable cells were counted at day 4. In the untreated samples the cancer cells had multiplied by almost a factor of 10 and in the treated samples the count had decreased to less than 0.5 of the original count.

Data set [13] relates to Non-small cell lung cancer cells (NCI-H2342). Kind of data set: Cell viability assay (trypan blue), non-small cell lung cancer cells. Type of data set: cell-based. The settings on record: treated with Gö6976 (concentration not given); about 5×10^5 cells at start; day 4 (FIG. 5). As for the experimental part: Non-small cell lung cancer cells (NCI-H2342).
as §7, §6, §8

Data set [14] deals with U-2 OS human osteosacoma cells. The data set can be described thus: Cell viability assay (trypan blue), osteosarcoma cells. Type of data set: cell-based. To be noted: 2 micromoles Gö6976; about 5×10^5 cells at start; after four days (FIG. 6). How it is done:
U-2 OS human osteosacoma cells,
as §1, §6
One of two samples of about 5×10^5 cells was treated with 2 micromoles of Gö6976 and the viable cells were counted after four days.

The subject of data set [15] is C6 glioma cells. Kind of data set: Cell growth, brain tumor cells, second set. The format is cell-based. To be noted: 2 μm Gö6976 for 7 days; approximately 5×10^5 cells seeded (FIG. 10). How it is done: as §1, §2
(§9) Two sets of approximately 5×10^5 C6 glioma cells and Hela cervical cancer cells were seeded and treated or untreated with 2 μm Gö6976 for 7 days.

Data set [16] relates to HL60 human acute promyelocytic leukemia cells. Kind of data set: Cell viability assay (trypan blue), leukemia cells. The format is cell-based. To be noted: 2 micromoles Gö6976; 5×10^5 cells at start; after four days (FIG. 4). How it is done:
HL60 human acute promyelocytic leukemia cells were grown in RPMI 1640 medium containing 10 percent heat-inactivated fetal bovine serum (FBS).
as §6
One of two samples of 5×10^5 cells was treated with 2 micromoles of Gö6976 and the viable cells were counted after four days. At four days the cells in the untreated sample had grown by a factor of nearly 10 to almost 5×10^6 cells whereas viable cells in the treated sample was less than 0.2×10^5.

In data set [17] the test system is Hela human cervical cancer cells. Kind of data set: Cell growth, cervical cancer cells, second set. The format is cell-based. The settings on record: 2 μm Gö6976 for 7 days; approximately 5×10^5 cells seeded (FIG. 10). How it is done: Hela human cervical cancer cells
as §1, §2, §9

Data set [18] has as its system normal cells including rat 3Y1 fibroblast. Kind of data set: Toxic effects on normal cells. The format is cell-based. From the text: Toxic effects begin to show up at concentrations of about 5 micromoles in these types of cells.

The structures appear in SMILES notation.

Turning to `NCCCn1c2ccccc2c2c3c(c4c5ccccc5[nH]c4c21)CNC3` [C-o 002, 12-(3-Aminopropyl)-5,6,7,12,13-pentahydro-indolo[2,3,-a] pyrrolo [3,4-c] carbazole], the viable cells counted in data set [1] is given as 7 × 10^5; in data set [2] (14 μm compound) it was 0; in [3], 0; in [4] (14 μm compound), 0; in [5] (14 μm compound) it was 0; in data set [6] (14 μm compound), 1.9 × 10^4.

`Cn1c2ccccc2c2c3c(c4c5ccccc5n(CCC#N)c4c21)CNC3=O` [Gö6976, 12-(2-Cyanoethyl)-6,7,12,13-tetrahydro-13-methyl-5-oxo-5H-indolo[2,3-a]pyrrolo[3,4-c]carbazole]: the “toxic effect on 3Y1 EGFR cells” value in data set [7] (Gö6976 alone) is on record as “did not show any toxic effect”. Moreover, in [7] (co-treatment with 250 nanamoles Gö6976 and 100 ng/ml EGF, 24 hours), the “EGF-induced cell transformation (transformed morphology)” value is given as “completely blocked”. In addition, the “viable cells in the treated sample relative to the original count” value is reported as “approximately doubled” in data set [8] and “reduced to about half the original count” in [14]. In addition, the “TPA-induced downregulation of PKC α” value in [9] is listed as “prevented TPA-induced downregulation”. Also, the viable cells counted is reported as 0 in [2] (2 μm Gö6976, approximately 5×10^5 cells seeded); 0 in data set [4] (2 μm Gö6976); 0 in data set [5] (2 μm Gö6976); 1.1 × 10^4 in data set [6] (2 μm Gö6976). Moreover, the “colony forming efficiency of EGF (percentage of cell forming colonies)” value in [10] was “greatly reduced”. Further, the viable cell count entry was “about 1×10^5” in data set [11] (1 micromole Gö6976) and “less than 0.3×10^5” in data set [11] (2.0 micromolar Gö6976). The “viable cell concentration over time” value in data set [11] (2.0 micromoles Gö6976, measured at 24 hours intervals for 4 days (FIG. 3)) is reported as “reduced by approximately half each 24 hours”. In addition, the “viable cell count relative to the original count” value in data set [12] and in [13] was “less than 0.5” in each case. The cell growth entry in [15] and in data set [17] was “significant inhibited the growth” in each case. The “viable cells in the treated sample” value in data set [16] is on record as “less than 0.2×10^5”. In data set [18] (concentrations used in the first set of experiments), the “toxic effects on normal cells” value is listed as “no significant toxic effects”. For the same compound, the “concentration at which toxic effects begin to show up” value in data set [18] (normal cells) is “about 5 micromoles”.

In the case of `Cl.NCCCn1c2ccccc2c2c3c(c4c5ccccc5[nH]c4c21)CNC3` [C-o 003, 12-(3-Aminopropyl)-5,6,7,12,13-pentahydro-indolo[2,3,-a] pyrrolo [3,4-c] carbazole hydrochloride], the viable cells counted in data set [1] is on record as 8.5 × 10^5; in data set [2] (14 μm compound) it was 0; in data set [3], 0; in data set [4] (14 μm compound), 0; in data set [5] (14 μm compound), 0; in data set [6] (14 μm compound), 2.7 × 10^4.
